We go through 16 molecules from ChEMBL document CHEMBL1201862, “PubChem BioAssay data set” (2004).

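Five concentrations, 48 hours, 96-well plates. GI50 is the concentration that inhibits growth by half.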 The source made the active and inactive calls. No stated cut-off is given here; in the data, active = GI50 up to about 1.1 µM and inactive = higher.

Test systems include KM-20L2; RXF 631; M19-MEL; DMS-114; HOP-18; LXFL 529; XF498; Hs-578T; MDA-N.
Assay in all cases: inhibition of tumour cell growth, NCI panel, 48 h

For `O=C1CCC2CCOc3ccc(O)c1c32` (stereo not drawn), the GI50 with KM-20L2, with RXF 631, with M19-MEL and with DMS-114 was > 100 µM (inactive) each time.
`CC(C)OCN1COCN/C1=N/C#N`: the GI50 in the test with KM-20L2 is > 100 µM (inactive); in the test with RXF 631, > 100 µM (inactive); in the test with HOP-18 it was > 100 µM (inactive); with M19-MEL it was > 100 µM (inactive); with LXFL 529, > 100 µM (inactive); with DMS-114, 58.6 µM (inactive).
As for `Cc1ccc(/N=C/c2ccc3c(c2)OCO3)cc1C`, the GI50 in the test with KM-20L2, in the test with RXF 631, in the test on HOP-18, in the test with XF498, with M19-MEL and in the test on LXFL 529 was > 100 µM (inactive) each time.
Take `O=C1[C@H]2ON(c3ccccc3)C(c3ccco3)[C@H]2C(=O)N1c1ccc(Cc2ccc(N3C(=O)[C@@H]4ON(c5ccccc5)C(c5ccco5)[C@@H]4C3=O)cc2)cc1` (stereo partly drawn): the GI50 was > 100 µM (inactive) in the test with KM-20L2; > 100 µM (inactive) in the test on HOP-18; 42.7 µM (inactive) in the test on XF498; > 100 µM (inactive) in the test with M19-MEL; > 100 µM (inactive) with LXFL 529; > 100 µM (inactive) in the test with DMS-114.
Regarding `CS(=O)(=O)OCCN1CCN(C(=O)c2cccc3c(Nc4ccc(S(N)(=O)=O)cc4)c4ccccc4nc23)CC1`, the GI50 in the test with KM-20L2 is > 100 µM (inactive); in the test with RXF 631 it was > 100 µM (inactive); in the test on HOP-18, > 100 µM (inactive); in the test with XF498, > 100 µM (inactive); with M19-MEL, > 81.8 µM (inactive); in the test with LXFL 529, > 100 µM (inactive). Besides, the GI50 with DMS-114 was > 42.2 µM (inactive).
With `O=CN/C=C/c1ccc(O)c(O)c1`, the GI50 in the test on KM-20L2, in the test with RXF 631, in the test with XF498, with M19-MEL, in the test with LXFL 529 and in the test with DMS-114 was > 100 µM (inactive) in each case.
Regarding `CC12CC(=O)OC(Cc3ccccc31)O2` (stereo not drawn), the GI50 in the test with KM-20L2, with HOP-18, in the test with XF498, in the test with M19-MEL, in the test on LXFL 529 and with DMS-114 was > 100 µM (inactive) each time.
On to `CCCN(CCC)C(=O)c1nc(N)nc(-c2ccc(OC)cc2)c1-c1ccc(OC)cc1`, for which the GI50 in the test on KM-20L2 is > 100 µM (inactive); in the test on RXF 631 it was > 100 µM (inactive); in the test with HOP-18, 46.7 µM (inactive); with XF498, > 100 µM (inactive); in the test with LXFL 529, 82 µM (inactive); with DMS-114, 84.9 µM (inactive).
`COc1cc(-c2oc3c(OC)c(OC)cc(O)c3c(=O)c2OC)ccc1O` [TERNATIN]: the GI50 is > 100 µM (inactive) in the test with KM-20L2; > 100 µM (inactive) in the test on RXF 631; 2.2 µM (inactive) in the test on XF498; 3.93 µM (inactive) with Hs-578T; 15.2 µM (inactive) with MDA-N; 3.98 µM (inactive) with LXFL 529. Moreover, in the test on DMS-114, the GI50 is > 100 µM (inactive).
As to `Cc1cc(NS(=O)(=O)c2ccc(NC(=O)c3cccc4c(=O)c5ccccc5[nH]c34)cc2)no1`, the GI50 in the test on KM-20L2 is > 100 µM (inactive); with HOP-18, 10.2 µM (inactive); in the test with XF498 it was 13.6 µM (inactive); in the test with M19-MEL, 39.4 µM (inactive); with LXFL 529, 15.7 µM (inactive); with DMS-114, 46 µM (inactive).
As to `Nc1nc(S)nc(C(=O)Nc2ccc(Cl)c(Cl)c2)c1-c1ccc(Cl)cc1`, the GI50 with KM-20L2, in the test on RXF 631, in the test on HOP-18, in the test on XF498, in the test on M19-MEL and in the test with LXFL 529 was > 100 µM (inactive) each time. Further, in the test on DMS-114, the GI50 is > 100 µM (inactive).
Consider `CC(=O)Nc1ccc(S(=O)(=O)N/N=C/c2cc(I)cc([N+](=O)[O-])c2O)cc1`, for which the GI50 with KM-20L2 was > 100 µM (inactive); with RXF 631, > 100 µM (inactive); with HOP-18, 27.7 µM (inactive); with XF498 it was 24.1 µM (inactive); in the test with M19-MEL, 66.4 µM (inactive); in the test on DMS-114, 50.8 µM (inactive).
Take `O=C1NN=CN2C(=O)CCC12` (stereo not drawn): the GI50 in the test on KM-20L2, in the test on RXF 631, in the test on XF498, in the test on M19-MEL, in the test with LXFL 529 and in the test on DMS-114 was > 100 µM (inactive) each time.
As for `CCOc1ccc(/C=N\N2C(=O)c3ccccc3C2=O)cc1`, the GI50 in the test with KM-20L2, in the test on RXF 631, in the test with HOP-18, in the test with XF498, in the test on M19-MEL and in the test with LXFL 529 was > 100 µM (inactive) throughout. The GI50 in the test with DMS-114 is > 100 µM (inactive).
On to `COC(=O)[C@@]12OC[C@]34C([C@@H](O)C1O)[C@@]1(C)CC(=O)C(O)=C(C)C1C[C@H]3OC(=O)[C@H](OC(=O)CC(C)C(F)(F)F)[C@H]42` (stereo partly drawn), for which the GI50 with KM-20L2 is 0.0195 µM (active); in the test on HOP-18 it was 0.308 µM (active); with XF498, 0.00522 µM (active); with M19-MEL, 0.0164 µM (active); with LXFL 529, 0.00731 µM (active); in the test on DMS-114, 0.00948 µM (active).
Take `CCOC(=O)C(=O)Nc1nc2c(s1)C(=O)c1ccccc1C2=O`: the GI50 is 21.2 µM (inactive) in the test on KM-20L2; 12.3 µM (inactive) in the test with RXF 631; 13.9 µM (inactive) in the test with XF498; 2.49 µM (inactive) in the test with M19-MEL; 13.4 µM (inactive) in the test with LXFL 529; 3.6 µM (inactive) in the test on DMS-114.
